Laboratory results published in article PMC8653149, “Cyclic Analogs of Desferrioxamine E Siderophore for ^68Ga Nuclear Imaging: Coordination Chemistry and Biological Activity in Staphylococcus aureus” (Inorganic Chemistry, 2021).
“Also recorded” adds a separate entry of the source. Where two headings read alike, the source gives them in different places. Marks after values point to notes of the source that are not given here.

How the values were obtained:
[1] = Ga(III) complex stability constants by Fe(III)–Ga(III) metal–metal competition, potentiometric and UV–vis pH-metric titrations; type: physicochemical
Excerpt: The next step was to determine the coordination specificity of investigated ligands toward Ga(III) ions. This is a somewhat challenging task because it requires indirect methods since the investigated complexes started to form in a very acidic environment, where potentiometric measurements were not accurate owing to the error of the glass electrode,[55],[56] and gallium is spectroscopically silent in UV–vis. To bypass this inconvenience, we implemented metal–metal competition assays. After addition of a significant molar excess of Ga(III), the LMCT band of Fe(III)-FOXE analog complexes was almost fully silenced as Ga(III) replaced Fe(III) in its complexes (Figure S5). By implementing those spectral changes, we were able to calculate the stability constants of the Ga(III)-FOXE analog species present below or around pH 2, [GaHL]^+ (Table S8). Stability constants for the [GaL] species, present above pH 2, could be determined by potentiometric titrations for Ga(III)-FOX 2-2, 2-3, 2-4, and 3-5, with logβ of [GaHL]^+ fixed in the calculations (Table S8). For Ga(III)-FOX 2-5, we could not observe any deprotonation step using this methodology. To confirm this behavior, UV–vis titration of the Ga(III)-FOX 2-5 analog complex was performed in the 200–300 nm spectral range (Figure S6) corresponding to the hydroxamate groups’ protonation state.[57]−[59] […] Above pH 4, there were no significant changes in maxima localization or absorbance intensity. Above pH 9, absorbance started to rise again, which indicated complex dissociation. […] Overall, the data indicated a decreased stability of [GaL] species when decreasing or increasing the ring size of Ga(III)-FOX 2-5, as reflected by pKNHOH (Table S8). Implementing this full coordination specification of Ga(III)-FOX complexes, we were able to calculate speciation plots which are presented in Figure 1 for the most efficient analogs FOX 2-4 and FOX 2-5, given here as examples, and in Figure S7 for others.
Proposed biomimetic analogs of cyclic siderophore FOXE bind Fe(III) ions starting from pH around 0, and the complexation is essentially complete far below or around pH of 2. Therefore, the stability constants of the first species formed in solution were determined from the spectrophotometric pH-dependent batch titrations carried out in the pH range of around 0.1–2 (Figure S3), by following the changes in the intense LMCT band of the metal complex. These values were further used as constant values in spectrophotometric or potentiometric titrations carried out in the pH range from 2 to 11 (Figure S3) to get the overall stability constants, logβFeL (Table S5). Since Ga(III)-FOX complexes present similar coordination properties, the first species start to form below pH 2 as well. However, in this case, we have used indirect methods to determine stability constants for Ga(III)-FOXE analogs and the Ga(III) complex with native FOXE, as Ga(III) complexes are spectroscopically silent in the UV–vis region. Metal–metal competition titrations were carried out at pH 1.6 for FOX 2-5 and FOX 2-4 and at pH 2 for the rest of the analogs and the native compound. The intense LMCT band of the Fe(III) complex was silenced after addition of a fixed volume of Ga(III) ions (Figure S5).
Potentiometric titrations were performed using an automatic titrator system Titrando 905 (Metrohm) equipped with a 800 Dosino dosing unit and a microburet with a volume of 2 mL. A combined glass electrode was calibrated each day for hydrogen ion concentration by 0.1 M HClO4 with CO2-free 0.1 M NaOH solutions. A stream of high purity grade argon, presaturated with water vapor, passed over the surface of the solution cell, filled with 3 mL of the studied solution. For each system, a minimum of four independent titrations was performed. […]

[2] = set-up: method as in Ref 3 (supplement); settings: ref Ref 3 (supplement); cited from earlier work
[3] = set-up: method as in PMID 11673947; settings: cited from earlier work
[4] = cited from earlier work
[5] = cited from earlier work; remark: listed apart in the source
[6] = Water solubility of the ligands; type: physicochemical; settings: H2O and H2O/DMSO 70/30 w/w mixture; concentrations used in assays
Protocol: Elaborated solution thermodynamic studies combining several methods were performed in order to investigate those properties. Five FOXE analogs were water soluble in at least 1 × 10^–3 M concentration. […] Major results of physicochemical analysis for analogs characterized by most desirable properties are summarized below.

[7] = Distribution coefficient (logD) of ^68Ga-labeled ligands between octanol and PBS

## O=C1CCC(=O)N(O)CCCCCNC(=O)CCC(=O)N(O)CCCCCNC(=O)CCC(=O)N(O)CCCCCN1 [FOXE, desferrioxamine E]
[1]; UV-Vis (metal–metal competition) titrations, [L] = 1·10^-4 M, M:L 1:1, T = 25°C, I = 0.1 M NaClO4
  logβ[GaL]: 29.79 (1)
[1]; calculated, pH 7.4
  pGa(III): 25.2
[1]; potentiometric [L] = 1 × 10^–3 M and UV–vis 5 × 10^–5 M, M:L 1:1, T = 25 °C, I = 0.1 M NaClO4
  logβGa(III)L: 29.79(1)
[2]
  protonation constant logβ, H2L + H+ ↔ H3L: 27.94
  protonation constant logβ, HL + H+ ↔ H2L: 19.31
  protonation constant logβ, L + H+ ↔ HL: 9.89
[3]
  E1/2 vs NHE: –477 ^d mv
  logβFe(II): 12.1 ^d
[4]
  pFe(III): 27.3 ^c

## CC(=O)N(O)CCCCCNC(=O)CCC(=O)N(O)CCCCCNC(=O)CCC(=O)N(O)CCCCCN [DFOB]
[5]
  logβGa(III)L: 27.56 ^g
  pGa(III): 21.6 ^g
[4]
  logβFe(III)L: 31.10 ^g
  pFe(III): 26.3 ^f

## O=C1CCCCCCN(O)C(=O)CCNC(=O)CCCCCCN(O)C(=O)CCNC(=O)CCCCCCN(O)C(=O)CCN1 [FOX 2-6]
[6]
  solubility: not water soluble in concentrations used during our assays; also recorded: not soluble in H2O nor in a H2O/DMSO 70/30 w/w mixture
[7]
  logD at 20 min: -0.58

## transferrin: strong iron-binding ligand present in living organisms, literature comparator for pM
[5]
  pGa(III): 20.3 ^i
[4]
  pFe(III): 25.6 ^h
